# Measurements from publication PMC6811361, “Effect of a bound anion on the structure and dynamics of halorhodopsin from Natronomonas pharaonis” (Structural Dynamics, 2019).
# What was measured:
# Type in all cases: binding
# [1] = molecular target: T1, halorhodopsin from Natronomonas pharaonis (NpHR) (Natronomonas pharaonis, UniProt P15647, W229F); assay: absorption and time-resolved UV resonance Raman spectroscopy; conditions: covalent, protonated Schiff base; retinal added to expression culture
# T1 construct: gene hop; C-terminal His tag, expressed in E. coli BL21(DE3), solubilised and purified in DDM; all-trans-retinal on Lys256
# [2] = molecular target: T2, halorhodopsin from Natronomonas pharaonis (NpHR) (Natronomonas pharaonis, UniProt P15647, W127F); assay: as above; conditions: covalent, protonated Schiff base; retinal added to expression culture
# T2 construct: gene hop; C-terminal His tag, expressed in E. coli BL21(DE3), solubilised and purified in DDM; all-trans-retinal on Lys256
# [3] = molecular target: T3, halorhodopsin from Natronomonas pharaonis (NpHR) (Natronomonas pharaonis, UniProt P15647); assay: visible resonance Raman spectroscopy (C=N stretch, deuteration shift); conditions: covalent, protonated Schiff base at Lys256; pH 7.0; chloride-bound, formate-bound and anion-depleted forms
# T3 construct: gene hop; C-terminal His tag, expressed in E. coli BL21(DE3), solubilised and purified in DDM; all-trans-retinal on Lys256
# T3 sequence (P15647 whole entry): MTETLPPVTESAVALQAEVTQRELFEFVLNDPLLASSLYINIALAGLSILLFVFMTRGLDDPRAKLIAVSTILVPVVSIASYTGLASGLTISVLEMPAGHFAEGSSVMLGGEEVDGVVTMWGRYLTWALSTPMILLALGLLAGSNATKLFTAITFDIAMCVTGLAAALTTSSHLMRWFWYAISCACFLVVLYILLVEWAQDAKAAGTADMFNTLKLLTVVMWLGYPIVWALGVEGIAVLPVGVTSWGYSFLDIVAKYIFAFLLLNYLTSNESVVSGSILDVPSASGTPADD
# T1 sequence (P15647 whole entry W229F): as the sequence (P15647 whole entry) above, with W229F counted along it
# T2 sequence (P15647 whole entry W127F): as the sequence (P15647 whole entry) above, with W127F counted along it
smiles,measurement,setting,value
CC1=C(/C=C/C(C)=C/C=C/C(C)=C/C=O)C(C)(C)CCC1 [all-trans-retinal],absorption and time-resolved UV resonance Raman spectroscopy,[1],sufficient amounts of the W127F and W229F NpHR mutants were obtained to measure their spectra
same,absorption and time-resolved UV resonance Raman spectroscopy,[2],sufficient amounts of the W127F and W229F NpHR mutants were obtained to measure their spectra
same,"visible resonance Raman spectroscopy (C=N stretch, deuteration shift)",[3],The observed deuteration shifts indicate that the Schiff base is protonated in all three forms
